Source: ChEMBL document CHEMBL1124228, “Synthesis of (aryloxy)alkylamines. 1. Novel antisecretory agents with H+K+-ATPase inhibitory activity” (J Med Chem, 1988)

Target: T1, Potassium-transporting ATPase (Homo sapiens, UniProt P20648)
Test: Antisecretory activity evaluated by the inhibition of 14C -AP uptake in isolated rabbit parietal cells stimulated by exogenous histamine
Assay type: functional, Oryctolagus cuniculus
Settings: target entry is the homologue from another species

Row | SMILES | IC50 [nM]
1 | CCCCN(CCCC)CCCOc1ccc(/C=C/c2nc3cc(C)ccc3s2)cc1 | 290
2 | C(=C\c1nc2ccccc2o1)/c1ccc(OCCCn2ccnc2)cc1 | 290
3 | c1ccc(-c2nc(-c3ccc(OCCCN4CCCC4)cc3)cs2)cc1 | 390
4 | CCCCN(CCCC)CCCCCOc1ccc(-c2csc(-c3ccccc3)n2)cc1 | 490
5 | CCN(CC)CCCOc1ccc(/C=C/c2nc3ccccc3o2)cc1 | 320
6 | CCCCN(CCCC)CCCOc1ccc(-c2csc(-c3ccc(OC)cc3)n2)cc1 | 480
7 | c1ccc(-c2nc(-c3ccc(OCCCn4ccnn4)cc3)cs2)cc1 | 10000
8 | CCCCN(CCCC)CCCOc1ccc(/C=C/c2nc3ccccc3n2C)cc1 | 800
9 | CCCCN(CCCC)CCOc1ccc(/C=C/c2nc3ccccc3s2)cc1 | 430
10 | CCCCN(CCCC)CCCOc1ccc(-c2csc(-c3ccc(C(F)(F)F)cc3)n2)cc1 | 2900
11 | c1cncc(-c2nc(-c3ccc(OCCCn4ccnc4)cc3)cs2)c1 | 3300
12 | CCCCN(CCCC)CCOc1ccc(-c2csc(-c3ccccc3)n2)cc1 | 310
13 | CCN(CC)CCCOc1ccc(/C=C/c2nc3ccccc3s2)cc1 | 370

Now from value to compound:

Row | IC50 [nM] | SMILES
14 | 250 | CCCCN(CCCC)CCCOc1ccc(/C=C/c2nc3ccccc3s2)cc1
15 | 30 | CCCN(CCC)CCCCOc1ccc(/C=C/c2nc3ccccc3s2)cc1.Cl.O
16 | 230 | CCCN(CCC)CCCOc1ccc(-c2csc(-c3ccccc3)n2)cc1
17 | 40 | CNC(=C[N+](=O)[O-])NCCSCc1ccc(CN(C)C)o1 [RANITIDINE]
18 | 110 | c1ccc(-c2nc(-c3ccc(OCCCN4CCCCC4)cc3)cs2)cc1
19 | 130 | CCCCN(CCCC)CCCCOc1ccc(-c2csc(-c3ccccc3)n2)cc1
20 | 270 | C(=C\c1nc2ccccc2o1)/c1ccc(OCCCCn2ccnc2)cc1
21 | 150 | CCCCN(CCCC)CCCOc1ccc(/C=C/c2nc3ccccc3o2)cc1
22 | 260 | CCCCN(CCCC)CCCOc1ccc(-c2csc(-c3cc(OC)cc(OC)c3)n2)cc1
23 | 170 | C(=C\c1nc2ccccc2o1)/c1ccc(OCCCCN2CCCCC2)cc1
24 | 180 | CCN(CC)CCCCOc1ccc(/C=C/c2nc3ccccc3s2)cc1
25 | 80 | CCN(CC)CCCCOc1ccc(/C=C/c2nc3ccccc3o2)cc1
26 | 200 | C(=C\c1nc2ccccc2s1)/c1ccc(OCCCCn2ccnc2)cc1
27 | 130 | C(=C\c1nc2ccccc2s1)/c1ccc(OCCCn2ccnc2)cc1
28 | 260 | CCCCN(CCCC)CCCOc1ccc(/C=C/c2nc3cc(C)ccc3o2)cc1

Species: Rattus norvegicus
Test: Effective dose required for the inhibition of total acid secretion in pylorus-ligated rats
Assay type: functional
Settings: not given

Row | SMILES | ED50 [mg/kg]
29 | CCCN(CCC)CCCCOc1ccc(/C=C/c2nc3ccccc3s2)cc1.Cl.O | 13.6

Test system: Rattus norvegicus
Test: Effective dose required for the inhibition of total acid secretion in pylorus-ligated rats at 20 mg/kg
Assay type: functional
Settings: not given

Row | SMILES | ED50 [mg/kg] | inhibition in vivo at 20 mg/kg [%]
30 | COc1ccc2[nH]c([S+]([O-])Cc3ncc(C)c(OC)c3C)nc2c1 (centres undefined) [OMEPRAZOLE] | 7.1 | 
31 | C(=C\c1nc2ccccc2o1)/c1ccc(OCCCn2ccnc2)cc1 |  | 26
32 | CNC(=C[N+](=O)[O-])NCCSCc1ccc(CN(C)C)o1 [RANITIDINE] | 9.1 | 
33 | CCCCN(CCCC)CCOc1ccc(/C=C/c2nc3ccccc3s2)cc1 |  | 14

Test system: Rattus norvegicus
Test: Percent inhibition of total acid secretion in pylorus-ligated rats at an id dose of 10 mg/kg
Assay type: functional
Settings: route intraduodenal

Row | SMILES | inhibition in vivo at 10 mg/kg [%]
34 | c1ccc(-c2nc(-c3ccc(OCCCn4ccnn4)cc3)cs2)cc1 | 72

Test system: Rattus norvegicus
Test: Percent inhibition of total acid secretion in pylorus-ligated rats at an id dose of 40 mg/kg
Assay type: functional
Settings: route intraduodenal

Row | SMILES | inhibition in vivo at 40 mg/kg [%]
35 | CCCN(CCC)CCCCOc1ccc(/C=C/c2nc3ccccc3s2)cc1.Cl.O | 93
36 | CCCN(CCC)CCCOc1ccc(-c2csc(-c3ccccc3)n2)cc1 | 94
37 | CCN(CC)CCCOc1ccc(/C=C/c2nc3ccccc3o2)cc1 | 54
38 | CCCCN(CCCC)CCCOc1ccc(/C=C/c2nc3ccccc3o2)cc1 | 96
39 | CCCCN(CCCC)CCCOc1ccc(-c2csc(-c3ccc(C(F)(F)F)cc3)n2)cc1 | 40
40 | C(=C\c1nc2ccccc2s1)/c1ccc(OCCCCn2ccnc2)cc1 | 17
41 | CCCCN(CCCC)CCCOc1ccc(/C=C/c2nc3cc(C)ccc3o2)cc1 | 88
42 | CCN(CC)CCCOc1ccc(/C=C/c2nc3ccccc3s2)cc1 | 71

Target: T1, Potassium-transporting ATPase
Test: (§1) Antisecretory activity evaluated by the inhibition of 14C -AP uptake in isolated rabbit parietal cells stimulated by dibutyryl cyclic adenosine 3', 5' -monophosphate (dcAMP)
Assay type: functional, Oryctolagus cuniculus
Settings: target entry is the homologue from another species

Row | SMILES | IC50 [nM]
43 | CCCCN(CCCC)CCCOc1ccc(/C=C/c2nc3cc(C)ccc3s2)cc1 | 530
44 | C(=C\c1nc2ccccc2o1)/c1ccc(OCCCn2ccnc2)cc1 | 250
45 | CCCCN(CCCC)CCCCCOc1ccc(-c2csc(-c3ccccc3)n2)cc1 | 860
46 | CCN(CC)CCCOc1ccc(/C=C/c2nc3ccccc3o2)cc1 | 980
47 | CCCCN(CCCC)CCCOc1ccc(-c2csc(-c3ccc(OC)cc3)n2)cc1 | 230
48 | CCCCN(CCCC)CCCOc1ccc(/C=C/c2nc3ccccc3n2C)cc1 | 2600
49 | CCCCN(CCCC)CCOc1ccc(/C=C/c2nc3ccccc3s2)cc1 | 600
50 | CCCCN(CCCC)CCCOc1ccc(-c2csc(-c3ccc(C(F)(F)F)cc3)n2)cc1 | 2000
51 | c1cncc(-c2nc(-c3ccc(OCCCn4ccnc4)cc3)cs2)c1 | 3000
52 | CCCCN(CCCC)CCOc1ccc(-c2csc(-c3ccccc3)n2)cc1 | 350
53 | CCN(CC)CCCOc1ccc(/C=C/c2nc3ccccc3s2)cc1 | 150

The next lines start with the values.

Row | IC50 [nM] | SMILES
54 | 260 | CCCCN(CCCC)CCCOc1ccc(/C=C/c2nc3ccccc3s2)cc1
55 | 120 | CCCN(CCC)CCCCOc1ccc(/C=C/c2nc3ccccc3s2)cc1.Cl.O
56 | 180 | CCCN(CCC)CCCOc1ccc(-c2csc(-c3ccccc3)n2)cc1
57 | 50 | c1ccc(-c2nc(-c3ccc(OCCCN4CCCCC4)cc3)cs2)cc1
58 | 120 | CCCCN(CCCC)CCCCOc1ccc(-c2csc(-c3ccccc3)n2)cc1
59 | 330 | C(=C\c1nc2ccccc2o1)/c1ccc(OCCCCn2ccnc2)cc1
60 | 150 | CCCCN(CCCC)CCCOc1ccc(/C=C/c2nc3ccccc3o2)cc1
61 | 540 | CCCCN(CCCC)CCCOc1ccc(-c2csc(-c3cc(OC)cc(OC)c3)n2)cc1
62 | 330 | C(=C\c1nc2ccccc2o1)/c1ccc(OCCCCN2CCCCC2)cc1
63 | 350 | CCN(CC)CCCCOc1ccc(/C=C/c2nc3ccccc3s2)cc1
64 | 120 | CCN(CC)CCCCOc1ccc(/C=C/c2nc3ccccc3o2)cc1
65 | 260 | C(=C\c1nc2ccccc2s1)/c1ccc(OCCCCn2ccnc2)cc1
66 | 340 | C(=C\c1nc2ccccc2s1)/c1ccc(OCCCn2ccnc2)cc1
67 | 340 | CCCCN(CCCC)CCCOc1ccc(/C=C/c2nc3cc(C)ccc3o2)cc1

Target: Potassium-transporting ATPase (Homo sapiens, UniProt P20648+P51164)
Test: as §1
Assay type: functional, Oryctolagus cuniculus
Settings: target entry is the homologue from another species

Sequence of Potassium-transporting ATPase (Homo sapiens, UniProt P20648+P51164) (P20648 whole entry): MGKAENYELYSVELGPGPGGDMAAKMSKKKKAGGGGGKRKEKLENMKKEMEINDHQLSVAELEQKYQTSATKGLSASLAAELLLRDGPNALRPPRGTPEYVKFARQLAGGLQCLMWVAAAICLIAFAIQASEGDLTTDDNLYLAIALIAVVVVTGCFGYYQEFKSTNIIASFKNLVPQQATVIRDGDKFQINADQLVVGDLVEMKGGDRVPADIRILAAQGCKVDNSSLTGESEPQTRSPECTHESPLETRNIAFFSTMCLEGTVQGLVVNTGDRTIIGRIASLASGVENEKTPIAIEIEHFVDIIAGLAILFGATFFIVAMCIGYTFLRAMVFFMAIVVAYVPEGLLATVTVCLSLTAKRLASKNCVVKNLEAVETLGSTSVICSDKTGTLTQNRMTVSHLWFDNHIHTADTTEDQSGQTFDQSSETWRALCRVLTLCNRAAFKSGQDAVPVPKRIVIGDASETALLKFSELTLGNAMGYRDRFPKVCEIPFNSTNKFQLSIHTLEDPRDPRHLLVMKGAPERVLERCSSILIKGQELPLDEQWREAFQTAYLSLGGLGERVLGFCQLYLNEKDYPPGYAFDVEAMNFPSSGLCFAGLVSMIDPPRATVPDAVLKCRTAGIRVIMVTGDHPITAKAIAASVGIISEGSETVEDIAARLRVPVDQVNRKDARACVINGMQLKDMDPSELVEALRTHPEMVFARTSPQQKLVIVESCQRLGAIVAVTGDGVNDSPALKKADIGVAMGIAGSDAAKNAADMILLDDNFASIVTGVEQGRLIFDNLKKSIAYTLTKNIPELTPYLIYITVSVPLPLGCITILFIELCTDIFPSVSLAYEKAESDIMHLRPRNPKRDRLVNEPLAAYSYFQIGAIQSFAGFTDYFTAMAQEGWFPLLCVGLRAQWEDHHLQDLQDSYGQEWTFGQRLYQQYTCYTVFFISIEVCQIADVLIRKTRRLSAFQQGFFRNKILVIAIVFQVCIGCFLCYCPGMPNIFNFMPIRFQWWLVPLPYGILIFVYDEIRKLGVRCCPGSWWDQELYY
Sequence of Potassium-transporting ATPase (Homo sapiens, UniProt P20648+P51164) (P51164 whole entry): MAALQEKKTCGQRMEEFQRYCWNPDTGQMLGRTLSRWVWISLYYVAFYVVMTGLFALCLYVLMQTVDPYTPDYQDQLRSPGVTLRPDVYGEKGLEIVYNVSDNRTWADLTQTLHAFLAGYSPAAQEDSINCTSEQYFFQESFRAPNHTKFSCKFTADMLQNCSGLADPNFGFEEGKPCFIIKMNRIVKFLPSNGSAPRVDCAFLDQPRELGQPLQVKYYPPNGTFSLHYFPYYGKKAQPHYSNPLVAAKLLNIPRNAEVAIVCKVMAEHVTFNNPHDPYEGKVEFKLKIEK

Row | IC50 [nM] | SMILES
68 | < 10000 | c1ccc(-c2nc(-c3ccc(OCCCN4CCCC4)cc3)cs2)cc1

Test system: Rattus norvegicus
Test: Percent inhibition of total acid secretion in pylorus-ligated rats at an id dose of 20 mg/kg
Assay type: functional
Settings: route intraduodenal

Row | SMILES | inhibition in vivo at 20 mg/kg [%]
69 | CCCCN(CCCC)CCCOc1ccc(/C=C/c2nc3ccccc3s2)cc1 | 40
70 | CCCCN(CCCC)CCCOc1ccc(/C=C/c2nc3cc(C)ccc3s2)cc1 | 14
71 | c1ccc(-c2nc(-c3ccc(OCCCN4CCCC4)cc3)cs2)cc1 | 36
72 | CCCCN(CCCC)CCCCCOc1ccc(-c2csc(-c3ccccc3)n2)cc1 | 54
73 | c1ccc(-c2nc(-c3ccc(OCCCN4CCCCC4)cc3)cs2)cc1 | 46
74 | CCCCN(CCCC)CCCCOc1ccc(-c2csc(-c3ccccc3)n2)cc1 | 56
75 | C(=C\c1nc2ccccc2o1)/c1ccc(OCCCCn2ccnc2)cc1 | 14
76 | CCCCN(CCCC)CCCOc1ccc(-c2csc(-c3ccc(OC)cc3)n2)cc1 | 4
77 | CCCCN(CCCC)CCCOc1ccc(-c2csc(-c3cc(OC)cc(OC)c3)n2)cc1 | 17
78 | C(=C\c1nc2ccccc2o1)/c1ccc(OCCCCN2CCCCC2)cc1 | 42
79 | CCCCN(CCCC)CCCOc1ccc(/C=C/c2nc3ccccc3n2C)cc1 | 1.6
80 | CCN(CC)CCCCOc1ccc(/C=C/c2nc3ccccc3s2)cc1 | 52
81 | CCN(CC)CCCCOc1ccc(/C=C/c2nc3ccccc3o2)cc1 | 31
82 | C(=C\c1nc2ccccc2s1)/c1ccc(OCCCn2ccnc2)cc1 | 22
83 | c1cncc(-c2nc(-c3ccc(OCCCn4ccnc4)cc3)cs2)c1 | 53
84 | CCCCN(CCCC)CCOc1ccc(-c2csc(-c3ccccc3)n2)cc1 | 41
